The source of these data is ChEMBL document CHEMBL1151493, “Cholestane glycosides with potent cytostatic activities on various tumor cells from Ornithogalum saundersiae bulbs” (Bioorg Med Chem Lett, 1997).

The subject of test [1] is HL-60. Kind of test: Tested for the cytostatic activity as inhibitory concentration against leukemia HL-60 cells. Format: functional, cell-based. As to conditions: Homo sapiens.
Another test deals with Lu-65. Kind of test: Tested for the cytostatic activity as inhibitory concentration against Lu-65 human pulmonary large cell carcinoma. The class given is functional, cell-based.
A further test relates to FM3A. Kind of test: Tested for the cytostatic activity as inhibitory concentration against FM3A mouse mastrocarcinoma cells. The class given is functional, cell-based.
For test [2], the system named is HL-60. Briefly: Tested in vitro for cytostatic activity against 60-cell line. Format: functional, Homo sapiens.
The test system of a further test is RERF-LC-AI. Kind of test: Tested for the cytostatic activity as inhibitory concentration against RERF-LC-AI human pulmonary squamous cell carcinoma. Format: functional, cell-based.
In another test the test system is P388/ADM. Briefly: Tested for the cytostatic activity as inhibitory concentration against adriamycin resistant P-388 mouse leukemia cells. The class given is functional, cell-based.
The next test concerns Mus musculus. Kind of test: Increased life span against mouse P388 leukemic cells after 0.01 mg/kg administration in mice. Format: functional.
In the next test the test system is A549. Kind of test: Tested for the cytostatic activity as inhibitory concentration against A-549 human pulmonary adenocarcinoma cells. The class given is functional, cell-based.
The next test concerns CCRF-CEM. Briefly: Tested for the cytostatic activity as inhibitory concentration against CCRF-CEM human leukemia cells. The class given is functional, cell-based.
The subject of another test is P388CPT. Kind of test: Tested for the cytostatic activity as inhibitory concentration against camptothecin resistant P-388 mouse leukemia cells. Format: functional, cell-based.
Another test deals with Lu-99 cell line. Kind of test: Tested for the cytostatic activity as inhibitory concentration against Lu-99 human pulmonary large cell carcinoma. The class given is functional, cell-based.
In a further test the test system is CCD 19Lu. Briefly: Tested for the cytostatic activity as inhibitory concentration against CCD-19Lu (human normal pulmonary) cells. Format: functional, cell-based.
For another test, the species on record is Homo sapiens. Kind of test: Tested for hemolytic activity in human erythrocytes at 100 ug/ml; Not hemolytic. Format: functional.
Another test has as its system P388. Kind of test: Tested for the cytostatic activity as inhibitory concentration against P-388 mouse leukemia cells. Format: functional, cell-based.
The test system of the next test is NCI-60 panel. Briefly: Tested in vitro for cytostatic activity against 60-cell line. As to conditions: Homo sapiens.
[3] abbreviates: Homo sapiens, CCRF-CEM, read-out: IC50.
Setting [4] is: Homo sapiens, Lu-99, read-out: IC50.
The mark [5] stands for this setting: Homo sapiens, CCD 19Lu, read-out: IC50.
Where [6] appears, read: Mus musculus, P388, read-out: IC50.

In brackets after ≈: the same amount, converted by molar mass.

For orientation: IC50 means the concentration needed to halve the response being measured. Consider `COc1ccc(C(=O)O[C@@H]2[C@H](O[C@H]3[C@@H](OC(C)=O)[C@H](O[C@H]4C[C@H]5[C@@H]6CC=C7C[C@@H](O[C@@H]8O[C@@H](CO)[C@@H](O)[C@H](O)[C@@H]8O)CC[C@]7(C)[C@H]6CC[C@]5(C)[C@@]4(O)[C@H](C)C(=O)CCC(C)C)OC[C@@H]3O)OC[C@@H](O)[C@@H]2O)cc1`, for which half-maximal inhibition with HL-60 [1] (IC50) required 0.24 nM.
Still for that read-out and setting: under `CC(=O)O[C@H]1[C@H](O[C@H]2C[C@H]3[C@@H]4CC=C5C[C@@H](O)CC[C@]5(C)[C@H]4CC[C@]3(C)[C@@]2(O)[C@H](C)C(=O)CCC(C)C)OC[C@H](O)[C@H]1O[C@@H]1OC[C@@H](O)[C@H](O)[C@@H]1OC(=O)/C=C/c1ccccc1` stands 0.29 nM.
Still for that read-out and setting: under `COc1ccc(C(=O)O[C@@H]2[C@H](O[C@H]3[C@@H](OC(C)=O)[C@H](O[C@H]4C[C@H]5[C@@H]6CC=C7C[C@@H](O)CC[C@]7(C)[C@H]6CC[C@]5(C)[C@]4(O)[C@H](C)C(=O)CCC(C)C)OC[C@@H]3O)OC[C@@H](O)[C@@H]2O)cc1OC` stands 0.2 nM.
In general, ILS refers to how much longer treated animals lived than controls. Read a high ILS as much gain in survival. Consider `COc1ccc(C(=O)O[C@@H]2[C@H](O[C@H]3[C@@H](OC(C)=O)[C@H](O[C@H]4C[C@H]5[C@@H]6CC=C7C[C@@H](O)CC[C@]7(C)[C@H]6CC[C@]5(C)[C@@]4(O)[C@H](C)C(=O)CCC(C)C)OC[C@@H]3O)OC[C@@H](O)[C@@H]2O)cc1`, for which the IC50 with Lu-65 came out at 0.2 ng/mL (≈ 0.229 nM); in the test with FM3A, 0.16 ng/mL (≈ 0.183 nM); in the test with RERF-LC-AI, 0.26 ng/mL (≈ 0.298 nM); in the test with P388/ADM, 0.77 ng/mL (≈ 0.882 nM); in the test on A549 it was 0.68 ng/mL (≈ 0.779 nM); in the test on CCRF-CEM (setting [3]) it was 0.16 ng/mL (≈ 0.183 nM). Also, the IC50 in the test with P388CPT came to 0.1 ng/mL (≈ 0.115 nM); in the test with Lu-99 cell line (setting [4]) it was 0.2 ng/mL (≈ 0.229 nM); with CCD 19Lu (setting [5]) it was 1500 ng/mL (≈ 1720 nM); with HL-60 [1], 0.25 nM; with P388 (setting [6]) it was 0.13 ng/mL (≈ 0.149 nM); with NCI-60 panel it was 0.78 nM. The compound further had an IC100 in the test on HL-60 [2] of 58 nM. In addition, the ILS at 0.01 mg/kg with Mus musculus turned out to be 59%. For the same compound, the Activity entry in the test listed under Homo sapiens was “Not hemolytic”.
For the compound `CC(C)CCC(=O)[C@@H](C)[C@@]1(O)[C@@H](O[C@@H]2OC[C@H](O)[C@@H](O[C@@H]3OC[C@@H](O)[C@H](O)[C@@H]3O)[C@H]2O)C[C@H]2[C@@H]3CC=C4C[C@@H](O)CC[C@]4(C)[C@H]3CC[C@@]21C`, the IC50 in the test on HL-60 [1] is 190 nM.
Still for that read-out and setting: to `CC(=O)O[C@H]1[C@H](O[C@H]2C[C@H]3[C@@H]4CC=C5C[C@@H](O[C@@H]6O[C@@H](CO)[C@@H](O)[C@H](O)[C@@H]6O)CC[C@]5(C)[C@H]4CC[C@]3(C)[C@@]2(O)[C@H](C)C(=O)CCC(C)C)OC[C@H](O)[C@H]1O[C@@H]1OC[C@@H](O)[C@H](O)[C@@H]1OC(=O)/C=C/c1ccccc1` belongs 0.12 nM.
As to `CC[C@@]1(O)C(=O)OCc2c1cc1n(c2=O)Cc2cc3ccccc3nc2-1` [CAMPTOTHECIN], the IC50 in the test on CCRF-CEM (setting [3]) is 5 ng/mL (≈ 14.4 nM); in the test with Lu-99 cell line (setting [4]) it was 1 ng/mL (≈ 2.87 nM); with CCD 19Lu (setting [5]), 2000 ng/mL (≈ 5740 nM); in the test with P388 (setting [6]), 5 ng/mL (≈ 14.4 nM).
Consider `COc1cccc2c1C(=O)c1c(O)c3c(c(O)c1C2=O)C[C@@](O)(C(=O)CO)C[C@@H]3O[C@H]1C[C@H](N)[C@H](O)[C@H](C)O1` [DOXORUBICIN], for which the half-inhibitory concentration (IC50) with CCRF-CEM (setting [3]) amounted to 10 ng/mL (≈ 18.4 nM); in the test on Lu-99 cell line (setting [4]), 2 ng/mL (≈ 3.68 nM); in the test with CCD 19Lu (setting [5]), 2000 ng/mL (≈ 3680 nM); in the test with P388 (setting [6]) it was 3 ng/mL (≈ 5.52 nM).
In the same order, the values of `CO[C@@]12[C@H](COC(N)=O)C3=C(C(=O)C(C)=C(N)C3=O)N1C[C@@H]1N[C@@H]12` [MITOMYCIN] are 20 ng/mL (≈ 59.8 nM), 10 ng/mL (≈ 29.9 nM), 2000 ng/mL (≈ 5980 nM) and 10 ng/mL (≈ 29.9 nM).
For `CC(=O)O[C@H]1C(=O)[C@@]2(C)[C@H]([C@H](OC(=O)c3ccccc3)[C@]3(O)C[C@H](OC(=O)[C@H](O)[C@@H](NC(=O)c4ccccc4)c4ccccc4)C(C)=C1C3(C)C)[C@]1(OC(C)=O)CO[C@@H]1C[C@@H]2O` [PACLITAXEL], in that order: 1 ng/mL (≈ 1.17 nM), 2 ng/mL (≈ 2.34 nM), 2000 ng/mL (≈ 2340 nM) and 10 ng/mL (≈ 11.7 nM).
Regarding CISPLATIN, the IC50 in the test with CCRF-CEM (ccrf-cem) stood at 5 ng/mL; in the test with Lu-99 cell line (lu-99), 1 ng/mL; with CCD 19Lu (ccd 19lu), 10000 ng/mL; in the test on P388 (p388), 50 ng/mL.
